Measurements from publication PMC7366380, “Discovery of a Potent and Selective Covalent Inhibitor and Activity-Based Probe for the Deubiquitylating Enzyme UCHL1, with Antifibrotic Activity” (Journal of the American Chemical Society, 2020).
Values joined by “and” are separate entries in the source; they are usually repeats but may differ in a detail not shown here. Equal entries are not always repeated.

Assays:
[1] = biological target: T1, UCHL1 (Homo sapiens, UniProt P09936); details: HEK293T, 1 h treatment, immunoblot
T1 sequence (P09936 1-223): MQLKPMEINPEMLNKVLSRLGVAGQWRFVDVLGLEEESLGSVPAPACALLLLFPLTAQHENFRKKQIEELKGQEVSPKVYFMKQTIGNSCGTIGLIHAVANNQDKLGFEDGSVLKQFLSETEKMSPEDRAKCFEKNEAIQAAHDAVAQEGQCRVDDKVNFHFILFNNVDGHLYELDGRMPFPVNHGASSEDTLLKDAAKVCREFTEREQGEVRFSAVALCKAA

[2] = biological target: T1, UCHL1; test: Competitive ABPP against ABP 2 in HEK293 cells, in-gel fluorescence and pulldown/UCHL1 immunoblot; format: cell-based; set-up: rapidly targets endogenous UCHL1 in cells; endogenous in cells; host or cells: HEK293; details: HEK293, compound 1 h, then 2 (20 nM) 10 min
[3] = test system: HEK293 cells whole proteome; test: Whole proteome analysis (no enrichment) of HEK293 cells treated with ABP 2, TMT; format: cell-based, human
[4] = biological target: FGFR2 (Homo sapiens, UniProt P21802); test: ABP 2 labeling in HEK293 cells, pulldown and FGFR2 immunoblotting; details: HEK293, any concentration up to 2 μM
[5] = ABP 2 stability in cell culture medium (in-gel fluorescence readout); details: DMEM medium, 37 °C, then 1 h on HEK293 cells
[6] = test system: FLAG-UCHL1 (WT, C90A, C90S); details: HeLa cells overexpressing FLAG-UCHL1, 1 h
[7] = biological target: T2, UCHL3 (Homo sapiens, UniProt P15374); test: Quantitative chemical proteomic profiling of ABP 2 in HEK293 cells: UCHL3; details: for Log2 reporter intensity values (Log2FC, DMSO substract): UCHL3, listed as ABP 2
T2 sequence (P15374 1-230): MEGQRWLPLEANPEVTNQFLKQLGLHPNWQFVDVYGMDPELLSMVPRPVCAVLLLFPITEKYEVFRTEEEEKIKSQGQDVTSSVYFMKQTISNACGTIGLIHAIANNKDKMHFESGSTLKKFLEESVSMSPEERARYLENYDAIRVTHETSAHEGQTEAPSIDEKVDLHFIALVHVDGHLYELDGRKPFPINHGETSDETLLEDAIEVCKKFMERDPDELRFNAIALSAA

[8] = biological target: fibroblast growth factor receptor 2 (FGFR2) (Homo sapiens, UniProt P21802); test: Quantitative chemical proteomic profiling of ABP 2 in HEK293 cells: FGFR2; details: HEK293, 20 nM
[9] = biological target: EIF3F (Homo sapiens, UniProt O00303); test: Quantitative chemical proteomic profiling of ABP 2 in HEK293 cells: EIF3F; details: for Log2 reporter intensity values (Log2FC, DMSO substract): EIF3F, listed as ABP 2
[10] = test system: UCHL3, UCHL5, and DUBs from other families; test: ABP 2 labeling in HEK293 cells, pulldown and immunoblotting of other DUBs; details: HEK293, 1 h, pulldown, immunoblot
[11] = biological target: PSMD14 (Homo sapiens, UniProt O00487); test: Quantitative chemical proteomic profiling of ABP 2 in HEK293 cells: PSMD14; details: for Log2 reporter intensity values (Log2FC, DMSO substract): PSMD14, listed as ABP 2
[12] = biological target: T1, UCHL1; test: Quantitative chemical proteomic profiling of ABP 2 in HEK293 cells (AzRB enrichment, TMT): UCHL1; details: for Log2 reporter intensity values (Log2FC, DMSO substract): UCHL1, listed as ABP 2
[13] = biological target: DUBs and other proteins in HEK293 cells (Homo sapiens, UniProt Q6P2Q9); test: Quantitative chemical proteomic profiling of ABP 2 in HEK293 cells: other DUBs and proteins across the proteome; details: PRPF8, listed as ABP 2
[14] = biological target: T1, UCHL1; details: compared with 1
[15] = in vitro; details: human
[16] = whole proteome, no enrichment, HEK293, 0.02 μM vs DMSO, 1 h
[17] = whole proteome, no enrichment, HEK293, 0.2 μM vs DMSO, 1 h
[18] = whole proteome, no enrichment, HEK293, 2 μM vs DMSO, 1 h
[19] = 200 nM, 180 min, replicates A,C
[20] = HEK293, 20 nM vs DMSO, 1 h, enrichment, TMT, n=3
[21] = HEK293, 200 nM vs DMSO, 1 h, enrichment, TMT, n=3
[22] = HEK293, 2 nM vs DMSO, 1 h, enrichment, TMT, n=3

Chain of fibroblast growth factor receptor 2 (FGFR2) (P21802 22-821): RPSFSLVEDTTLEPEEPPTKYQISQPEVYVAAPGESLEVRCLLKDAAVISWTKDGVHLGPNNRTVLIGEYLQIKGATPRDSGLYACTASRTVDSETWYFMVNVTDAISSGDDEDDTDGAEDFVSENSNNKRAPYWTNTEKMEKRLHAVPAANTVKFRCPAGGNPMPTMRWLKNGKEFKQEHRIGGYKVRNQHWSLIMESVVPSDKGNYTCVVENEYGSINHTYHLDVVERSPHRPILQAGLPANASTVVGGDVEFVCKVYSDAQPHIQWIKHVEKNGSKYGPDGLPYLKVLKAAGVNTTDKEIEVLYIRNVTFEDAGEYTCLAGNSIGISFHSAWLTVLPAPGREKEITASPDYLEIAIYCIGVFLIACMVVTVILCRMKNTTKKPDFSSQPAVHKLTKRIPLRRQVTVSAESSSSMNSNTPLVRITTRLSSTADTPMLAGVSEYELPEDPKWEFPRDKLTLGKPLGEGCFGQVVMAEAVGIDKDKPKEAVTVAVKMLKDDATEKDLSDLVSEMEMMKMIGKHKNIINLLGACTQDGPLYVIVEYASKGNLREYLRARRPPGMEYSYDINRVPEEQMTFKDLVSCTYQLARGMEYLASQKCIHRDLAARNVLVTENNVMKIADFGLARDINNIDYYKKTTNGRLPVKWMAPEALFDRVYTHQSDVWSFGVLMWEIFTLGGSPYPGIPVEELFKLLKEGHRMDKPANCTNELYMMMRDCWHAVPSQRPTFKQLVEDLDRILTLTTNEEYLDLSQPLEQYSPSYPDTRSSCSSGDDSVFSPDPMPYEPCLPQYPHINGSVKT
Chain of FGFR2 (P21802 22-821): as above

In the case of `N#CN1CCC[C@H]1C(=O)N1CCc2c(-c3c[nH]c4ncccc34)cccc21` [Compound 1], the “in-cell competition for HA-Ub-VME labeling of UCHL1” value [1] is reported as “concentration-dependent competition” and the “competition for UCHL1 labeling by ABP 2 (immunoblot)” value [2] is reported as “dose-dependent UCHL1 labeling reduction”.

With `C#Cc1cnc2[nH]cc(-c3cccc4c3CCN4C(=O)[C@@H]3CCCN3C#N)c2c1` [Compound 2] the “abundance change in whole proteome analysis” value ([3]; HEK293, 20, 200 or 2000 nM, 60 min) was “No significant abundance change”, the “Log2 t-test Difference, AAAS, ABP 2 -0.02 μM” value [3, 16] was 0.04017 and the “Log2 t-test Difference, AACS, ABP 2 -0.02 μM” value [3, 16] was -0.01983. For the same compound, the “Log2 t-test Difference, AAGAB, ABP 2 -0.02 μM” value [3, 16] was 0.05728, the “Log2 t-test Difference, AAMP, ABP 2 -0.02 μM” value [3, 16] was -0.03986 and the “Log2 t-test Difference, AAAS, ABP 2 -0.2 μM” value [3, 17] was -0.001777. For the same compound, the “Log2 t-test Difference, AACS, ABP 2 -0.2 μM” value [3, 17] was 0.03866, the “Log2 t-test Difference, AAGAB, ABP 2 -0.2 μM” value [3, 17] was 0.002598 and the “Log2 t-test Difference, AAMP, ABP 2 -0.2 μM” value [3, 17] was 0.04194. The “Log2 t-test Difference, AAAS, ABP 2 -2 μM” value [3, 18] was 0.07218, the “Log2 t-test Difference, AACS, ABP 2 -2 μM” value [3, 18] was 0.09255 and the “Log2 t-test Difference, AAGAB, ABP 2 -2 μM” value [3, 18] was 0.1494. For the same compound, the “Log2 t-test Difference, AAMP, ABP 2 -2 μM” value [3, 18] was -0.01217, the “FGFR2 enrichment by pulldown and immunoblotting” value [4] was “barely detectable” and the “in-cell competition for HA-Ub-VME labeling of UCHL1” value [1] was “concentration-dependent competition”. The “stability in media without loss of activity” value [5] was > 72 h, the “labeling of WT versus C90A/C90S UCHL1” value [6] was “only WT UCHL1 is labeled” and the “UCHL3 enrichment (chemical proteomics)” value ([7]; HEK293, higher concentrations) was “marginal enrichment”. For the same compound, the “Log2 reporter intensity values (Log2FC, DMSO substract)” value (from here on “Log2 reporter intensity values”) ([7]; 2 nM, 60 min, replicates A-C) was 0.05364 and -0.07312 and 0.4093, the “Log2 reporter intensity values” value ([7]; 20 nM, 10 min, replicates B,C) was 0.1568 and 0.3164 and the “Log2 reporter intensity values” value ([7]; 20 nM, 60 min, replicates A-C) was 0.5413 and 1.009 and 0.8836. The “Log2 reporter intensity values” value ([7]; 20 nM, 180 min, replicates A-C) was 1.082 and 1.256 and 0.9512, the “Log2 reporter intensity values” value ([7]; 200 nM, 10 min, replicates B,C) was 0.8647 and 0.7273 and the “Log2 reporter intensity values” value ([7]; 200 nM, 60 min, replicates A-C) was 1.566 and 2.128 and 1.659. The “Log2 reporter intensity values” value [7, 19] was 2.355 and 2.225, the “FGFR2 enrichment (chemical proteomics)” value [8] was “significantly enriched” and the “Log2 reporter intensity values” value ([9]; 2 nM, 60 min, replicates A-C) was 0.2006 and 0.08743 and 0.3363. For the same compound, the “Log2 reporter intensity values” value ([9]; 20 nM, 10 min, replicates B,C) was 0.2292 and 0.2562, the “Log2 reporter intensity values” value ([9]; 20 nM, 60 min, replicates A-C) was 0.2037 and 0.07421 and -0.06904 and the “Log2 reporter intensity values” value ([9]; 20 nM, 180 min, replicates A-C) was 0.329 and 0.1016 and 0.09094. The “Log2 reporter intensity values” value ([9]; 200 nM, 10 min, replicates B,C) was 0.1208 and 0.2271, the “Log2 reporter intensity values” value ([9]; 200 nM, 60 min, replicates A-C) was 0.222 and -0.03463 and 0.3157 and the “Log2 reporter intensity values” value [9, 19] was 0.2814 and 0.1468. For the same compound, the “Log2 t-test Difference, EIF3F, 20 nM” value [9, 20] was 0.06962, the “Log2 t-test Difference, EIF3F, 200 nM” value [9, 21] was 0.1677 and the “labeling of UCHL3, UCHL5, and DUBs from other families” value [10] was “minimal or no detectable labeling”. For the same compound, the “Log2 t-test Difference, PSMD14, 2 nM” value [11, 22] was 0.06988, the “Log2 t-test Difference, PSMD14, 20 nM” value [11, 20] was -0.004272 and the “Log2 t-test Difference, PSMD14, 200 nM” value [11, 21] was 0.1265. The “Log2 reporter intensity values” value ([11]; 2 nM, 60 min, replicates A-C) was 0.2334 and 0.06155 and -0.08529, the “Log2 reporter intensity values” value ([11]; 20 nM, 10 min, replicates B,C) was -0.01968 and 0.08775 and the “Log2 reporter intensity values” value ([11]; 20 nM, 60 min, replicates A-C) was -0.03468 and 0.06905 and -0.04719. The “Log2 reporter intensity values” value ([11]; 20 nM, 180 min, replicates A-C) was 0.05966 and 0.0953 and 0.01379, the “Log2 reporter intensity values” value ([11]; 200 nM, 10 min, replicates B,C) was 0.3381 and 0.09077 and the “Log2 reporter intensity values” value ([11]; 200 nM, 60 min, replicates A-C) was 0.2255 and 0.1628 and -0.008927. The “Log2 reporter intensity values” value [11, 19] was 0.02414 and 0.2255, the “Log2 t-test Difference, UCHL1, 2 nM” value [12, 22] was 1.208 and the “Log2 t-test Difference, UCHL1, 20 nM” value [12, 20] was 2.871. The “Log2 t-test Difference, UCHL1, 200 nM” value [12, 21] was 3.757, the “UCHL1 enrichment (chemical proteomics)” value ([12]; HEK293, 2, 20 or 200 nM, 10, 60 or 180 min) was “significantly enriched” and the “Log2 reporter intensity values” value ([12]; 2 nM, 60 min, replicates A-C) was 1.19 and 1.075. For the same compound, the “Log2 reporter intensity values” value ([12]; 20 nM, 10 min, replicates B,C) was 2.249 and 2.237, the “Log2 reporter intensity values” value ([12]; 20 nM, 60 min, replicates A-C) was 3.049 and 2.943 and 2.622 and the “Log2 reporter intensity values” value ([12]; 20 nM, 180 min, replicates A-C) was 2.8835 and 2.817 and 2.539. For the same compound, the “Log2 reporter intensity values” value ([12]; 200 nM, 10 min, replicates B,C) was 3.8701 and 3.284, the “Log2 reporter intensity values” value ([12]; 200 nM, 60 min, replicates A-C) was 3.775 and 4.082 and 3.414 and the “Log2 reporter intensity values” value [12, 19] was 3.588 and 3.369. For the same compound, the “Log2 reporter intensity values” value ([13]; 2 nM, 60 min, replicates A-C) was -0.06588 and -0.04701 and -0.09225, the “Log2 reporter intensity values” value ([13]; 20 nM, 10 min, replicates B,C) was -0.04258 and -0.0756 and the “Log2 reporter intensity values” value ([13]; 20 nM, 60 min, replicates A-C) was -0.1603 and -0.1771 and -0.09715. For the same compound, the “Log2 reporter intensity values” value ([13]; 20 nM, 180 min, replicates A-C) was -0.4052 and -0.02523 and -0.1285, the “Log2 reporter intensity values” value ([13]; 200 nM, 10 min, replicates B,C) was -0.213 and -0.1784 and the “Log2 reporter intensity values” value ([13]; 200 nM, 60 min, replicates A-C) was 0.0802 and -0.1457 and -0.1731. For the same compound, the “Log2 reporter intensity values” value [13, 19] was -0.0003694 and 0.003479.

In the case of `N#CN1CCC[C@@H]1C(=O)N1CCc2c(-c3c[nH]c4ncccc34)cccc21` [Compound 3], the “fold less active than 1 (UCHL1 FP assay)” value [14] is reported as > 1000 fold and the “competition for UCHL1 labeling by ABP 2 (immunoblot)” value [2] is reported as “no competition”.

In the case of `CC(=O)O/N=C1\C(=O)N(Cc2cc(Cl)ccc2Cl)c2ccc(Cl)cc21` [LDN-57444, reference compound], the EC50 at 3 days [15] is reported as ~9.2 µM.
